The source of these data is ChEMBL document CHEMBL1146699, “P3 cap modified Phe*-Ala series BACE inhibitors” (Bioorg Med Chem Lett, 2004).

As a reminder, the IC50 is the concentration that gives 50% inhibition. A higher IC50 goes with lower potency.

One test deals with Beta-secretase 1 (Homo sapiens, UniProt P56817). The test can be described thus: In vitro inhibitory activity against Beta-secretase 1 in human HEK293 cells. It is filed as cell-based.
The target in test [1] is T1, Beta-secretase 2 (Homo sapiens) (UniProt Q9Y5Z0).
T1 sequence (whole entry): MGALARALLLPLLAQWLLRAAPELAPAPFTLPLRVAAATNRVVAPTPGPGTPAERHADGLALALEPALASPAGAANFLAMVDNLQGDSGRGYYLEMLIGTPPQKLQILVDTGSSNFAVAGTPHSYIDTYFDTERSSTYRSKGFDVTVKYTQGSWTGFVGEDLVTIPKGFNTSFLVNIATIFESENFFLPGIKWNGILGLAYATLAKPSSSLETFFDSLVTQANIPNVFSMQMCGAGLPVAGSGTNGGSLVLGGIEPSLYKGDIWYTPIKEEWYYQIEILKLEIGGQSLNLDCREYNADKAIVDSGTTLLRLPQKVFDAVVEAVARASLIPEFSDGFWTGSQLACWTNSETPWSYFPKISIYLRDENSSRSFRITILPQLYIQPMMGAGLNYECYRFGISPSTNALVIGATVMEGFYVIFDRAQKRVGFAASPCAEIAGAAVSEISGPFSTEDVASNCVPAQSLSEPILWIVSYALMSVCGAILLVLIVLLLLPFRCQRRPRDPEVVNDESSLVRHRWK
The test can be described thus: Selectivity tested against Beta-secretase 2 (BACE) in human.

For test [2], the system named is HEK293. The test can be described thus: Inhibitory activity against beta-amyloid (Abeta) peptide in human HEK293/APP751swe cells. It is filed as functional, cell-based.
In test [3] the test system is HEK293. The test can be described thus: Inhibitory activity against beta-amyloid (Abeta) peptide in human HEK293/APP751swe cells; Range 4.8-7.5. It is filed as functional, cell-based.
In test [4] the test system is HEK293. The test can be described thus: Inhibitory activity against beta-amyloid (Abeta) peptide in human HEK293/APP751swe cells; Range 0.97-1.35. It is filed as functional, cell-based.

Molecules are shown by their SMILES. A value given as a limit tells only on which side of the number the result lay.

Chain of Beta-secretase 1 (P56817 whole entry): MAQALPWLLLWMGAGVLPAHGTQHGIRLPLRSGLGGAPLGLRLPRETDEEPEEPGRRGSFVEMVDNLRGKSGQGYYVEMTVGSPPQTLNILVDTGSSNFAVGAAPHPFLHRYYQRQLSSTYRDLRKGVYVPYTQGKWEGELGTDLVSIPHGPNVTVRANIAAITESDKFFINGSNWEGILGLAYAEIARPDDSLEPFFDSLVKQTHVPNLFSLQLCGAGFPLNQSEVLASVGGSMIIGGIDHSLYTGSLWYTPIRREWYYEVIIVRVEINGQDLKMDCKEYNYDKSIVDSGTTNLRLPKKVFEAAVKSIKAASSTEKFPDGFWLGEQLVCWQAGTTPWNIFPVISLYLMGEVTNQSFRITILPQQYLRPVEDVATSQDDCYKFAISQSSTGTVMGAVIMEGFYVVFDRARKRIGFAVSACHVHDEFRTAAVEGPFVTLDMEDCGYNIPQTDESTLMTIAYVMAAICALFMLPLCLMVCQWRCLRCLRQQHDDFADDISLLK

With `CC(C[C@H](O)[C@H](Cc1ccccc1)NC(=O)[C@H](C)NC(=O)[C@@H](N)C(C)C)C(=O)NC(C(=O)NCc1ccncc1)C(C)C` (single isomer, unassigned), the IC50 at Beta-secretase 1 amounted to 190 nM; in the test on HEK293 [2], 38400 nM. In addition, the Selectivity in test [1] was found to be 0.52.

`CC[C@H](C)[C@H](O)C(=O)N[C@@H](CC(C)C)C(=O)N[C@@H](Cc1ccccc1)[C@@H](O)CC(CC(C)C)C(=O)N[C@H](C(=O)NCc1ccncc1)C(C)C` (single isomer, unassigned): the figures for the half-inhibitory concentration (IC50) against Beta-secretase 1 and in the test with HEK293 [2] were 176 nM and 3700 nM, respectively. The like results for `CC[C@H](C)[C@H](O)C(=O)N[C@@H](CC(F)F)C(=O)N[C@@H](Cc1ccccc1)[C@@H](O)C[C@@H](CC(F)F)C(=O)N[C@H](C(=O)NCc1ccncc1)C(C)C` were, in that order, 3180 nM and above 37500 nM. With `CC[C@H](C)[C@H](O)C(=O)N[C@@H](CCC(F)F)C(=O)N[C@@H](Cc1ccccc1)[C@@H](O)CC(CCC(F)F)C(=O)N[C@H](C(=O)NCc1ccncc1)C(C)C` (single isomer, unassigned), the values for the IC50 against Beta-secretase 1 and in the test with HEK293 [2] were 45 nM and 1080 nM, respectively.

On to `CSCC[C@H](NC(=O)[C@@H](O)C(C)C)C(=O)N[C@@H](Cc1ccccc1)[C@@H](O)CC(C)C(=O)N[C@H](C(=O)NCc1ccncc1)C(C)C` (single isomer, unassigned), for which the results for the IC50 at Beta-secretase 1 and in the test with HEK293 [2] were 350 nM and 25200 nM, respectively. The like results for `CC(C)CC(=O)N[C@@H](C)C(=O)N[C@@H](Cc1ccccc1)[C@@H](O)CC(C)C(=O)N[C@H](C(=O)NCc1ccncc1)C(C)C` (single isomer, unassigned) were, in that order, 1740 nM and above 100000 nM. Turning to `CC(C)[C@H](O)C(=O)N[C@@H](C)C(=O)N[C@@H](Cc1ccccc1)[C@@H](O)C[C@@H](C)C(=O)N[C@H](C(=O)NCc1ccncc1)C(C)C`, the figures for the IC50 at Beta-secretase 1 and in the test on HEK293 [3] were 130 nM and below 7500 nM, respectively.

In turn, `CC(C[C@H](O)[C@H](Cc1ccccc1)NC(=O)[C@@H](NC(=O)[C@@H](O)C(C)C)C(C)C)C(=O)N[C@H](C(=O)NCc1ccncc1)C(C)C` (single isomer, unassigned) returned an IC50 against Beta-secretase 1 of 4640 nM.

For the compound `CCC[C@H](NC(=O)[C@@H](O)C(C)C)C(=O)N[C@@H](Cc1ccccc1)[C@@H](O)CC(C)C(=O)N[C@H](C(=O)NCc1ccncc1)C(C)C` (single isomer, unassigned), the values for the IC50 against Beta-secretase 1 and in the test on HEK293 [2] were 550 nM and 30400 nM, respectively. The corresponding values for `CC[C@H](C)[C@H](O)C(=O)N[C@@H](C)C(=O)N[C@@H](Cc1ccccc1)[C@@H](O)CC(C)C(=O)N[C@H](C(=O)NCc1ccncc1)C(C)C` (single isomer, unassigned) are 35 nM and 1230 nM. The corresponding values for `CCC(C[C@H](O)[C@H](Cc1ccccc1)NC(=O)[C@H](C)NC(=O)[C@@H](O)C(C)C)C(=O)N[C@H](C(=O)N[C@@H](C)c1ccccc1)C(C)C` (single isomer, unassigned) are 60 nM and 19800 nM. For the compound `CC(C[C@H](O)[C@H](Cc1ccccc1)NC(=O)[C@H](COC(C)(C)C)NC(=O)[C@@H](O)C(C)C)C(=O)N[C@H](C(=O)NCc1ccncc1)C(C)C` (single isomer, unassigned), at Beta-secretase 1, 4490 nM corresponded to half-maximal inhibition (IC50). With `CC[C@H](C)[C@H](O)C(=O)N[C@@H](CCCF)C(=O)N[C@@H](Cc1ccccc1)[C@@H](O)CC(CCCF)C(=O)N[C@H](C(=O)NCc1ccncc1)C(C)C` (single isomer, unassigned), the values for the IC50 against Beta-secretase 1 and with HEK293 [4] were 67 nM and below 1350 nM, respectively. As to `CCC(C[C@H](O)[C@H](Cc1ccccc1)NC(=O)[C@H](C)NC(=O)[C@@H](O)C(C)C)C(=O)N[C@H](C(=O)N[C@H](C)c1ccccc1)C(C)C` (single isomer, unassigned), the 50% inhibitory concentration (IC50) against Beta-secretase 1 was 100 nM; with HEK293 [2] it was 13600 nM. The corresponding values for `CC(C)C[C@H](O)C(=O)N[C@@H](C)C(=O)N[C@@H](Cc1ccccc1)[C@@H](O)CC(C)C(=O)N[C@H](C(=O)NCc1ccncc1)C(C)C` (single isomer, unassigned) are 230 nM and 16900 nM. The like results for `CC(C[C@H](O)[C@H](Cc1ccccc1)NC(=O)[C@H](C)NC(=O)[C@@H](F)C(C)C)C(=O)N[C@H](C(=O)NCc1ccncc1)C(C)C` (single isomer, unassigned) were, in that order, 1130 nM and 49000 nM. The like results for `CC(C[C@H](O)[C@H](Cc1ccccc1)NC(=O)[C@H](C)NC(=O)[C@@H](O)C(C)C)C(=O)N[C@H](C(=O)NCc1ccccc1)C(C)C` (single isomer, unassigned) were, in that order, 37 nM and 6300 nM. As to `CC(C[C@H](O)[C@H](Cc1ccccc1)NC(=O)[C@H](CO)NC(=O)[C@@H](O)C(C)C)C(=O)N[C@H](C(=O)NCc1ccncc1)C(C)C` (single isomer, unassigned), the IC50 against Beta-secretase 1 amounted to 350 nM; in the test with HEK293 [2], 20000 nM.

Consider `CC(C[C@H](O)[C@H](Cc1ccccc1)NC(=O)[C@H](C)NC(=O)[C@@H](O)CC(F)(F)F)C(=O)N[C@H](C(=O)NCc1ccncc1)C(C)C` (single isomer, unassigned), for which the figures for the IC50 at Beta-secretase 1 and in the test with HEK293 [2] were 220 nM and 3900 nM, respectively.
